Source: article PMC11570497 (Nature Plants, 2024)
Entries after “also recorded” stand apart in the source; their conditions may differ. Values belong to the molecule of their own block, whether it stands above or below them. Where no end group is shown, it is not given here. The star is where a group is joined. Dabcyl = CN(C)c1ccc(N=Nc2ccc(C(=O)*)cc2)cc1; EDANS = O=S(=O)(O)c1cccc2c(NCCN*)cccc12

Legend:
SBT5.2a–His = assay type: biochemical, Nicotiana benthamiana; conditions: different concentrations of SBT5.2a–His; 100 nM csp22; 45 minutes; read-out ROS burst on six-week-old leaf discs; n = 6
Method: Four-week-old N. benthamiana leaves were infiltrated with a 1:1 mixture (final OD600 = 0.5 for each) of A. tumefaciens GV3101 containing the silencing suppressor P19 and pPB097 or pJP008. AF containing SBT5.2a–His or P69B–His was extracted six days after infiltration and purified as previously described[44],[45].
The ROS burst assay was performed as previously described[43] except that L-012 (Wako Chemical) was used instead of luminol and the diameter of leaf discs used here was 4 mm rather than 6 mm. Briefly, after incubation in water overnight, one leaf disc (4 mm in diameter) was added to 100 µl of solution containing 25 ng µl^−1 L-012, 25 ng µl^−1 HRP and specified elicitor treatments. […] After incubation, 25 ng µl^−1 L-012 and 25 ng µl^−1 HRP were added to the AFs. Chemiluminescence was measured immediately with an Infinite M200 plate reader (Tecan) every minute for one hour.

[1] = AF from WT N. benthamiana; conditions: Nicotiana benthamiana, room temperature, up to 60 min
[2] = test system: leaf discs of N. benthamiana; assay type: cell-based, Nicotiana benthamiana; conditions: n = 6
[3] = n = 8
[4] = AF of sbt5.2 mutant plants; conditions: Nicotiana benthamiana, 21 °C, up to 20 min
P69B–His = assay: purified P69B–His; conditions: tomato, 21 °C, up to 20 min

Molecule: LNGKVKWFNNAKGYGFILEDGK [csp22]
- inactivation of csp22 elicitor activity by purified SBT5.2a–His (SBT5.2a–His): dose-dependent inactivation

Molecule: MLNGKVKWFNNAKGYGFILEDGKPDEDLFAHYSAIQMDGYKTLKAGQPVRFEIIQGPKGLHAVNIQSSLAKIGEPVKSAHAHTPEHAHA
- cleaved bond [1]: F-N, first_seen, 15 min; also recorded: L-K, first_seen, 15 min

Molecule: O=S(=O)(F)Cc1ccccc1 [PMSF]
- block of CspD perception (ROS burst) by subtilase inhibitor [2]: unable to block CspD perception

Molecule: DTGTVKWFNTSKGFGFISRDSG [csp22 PSPTO3984]
- speed of inactivation/degradation in AF of WT plants [3]: more quickly degraded than that of CspD

- not cleaved (P69B–His): not cleaved by purified P69B–His
Molecule: Dabcyl-VKWFNNAK-{EDANS}
- not cleaved [4]: no longer cleaved in AF of sbt5.2 mutants

Molecule: QTGTVKWFNDEKGFGFITPQSG [csp22 PSPTO4145]
- speed of inactivation/degradation in AF of WT plants [3]: slower than that of CspD
